Columns and labels:
[1] = biological target: Acetyl Cholinestrase (AChE) (Electrophorus electricus, UniProt O42275); test: Ellman assay (acetylthiocholine/DTNB, […] nm) with electric eel AChE; type: biochemical; conditions: read-out: EC50 (the source's name) (converted)
Jack bean Urease = Jack bean Urease (Canavalia ensiformis, UniProt P07374); test: indophenol urease assay (ammonia production, […] nm); type: biochemical
Jack bean Urease, sequence (P07374 whole entry, looked up): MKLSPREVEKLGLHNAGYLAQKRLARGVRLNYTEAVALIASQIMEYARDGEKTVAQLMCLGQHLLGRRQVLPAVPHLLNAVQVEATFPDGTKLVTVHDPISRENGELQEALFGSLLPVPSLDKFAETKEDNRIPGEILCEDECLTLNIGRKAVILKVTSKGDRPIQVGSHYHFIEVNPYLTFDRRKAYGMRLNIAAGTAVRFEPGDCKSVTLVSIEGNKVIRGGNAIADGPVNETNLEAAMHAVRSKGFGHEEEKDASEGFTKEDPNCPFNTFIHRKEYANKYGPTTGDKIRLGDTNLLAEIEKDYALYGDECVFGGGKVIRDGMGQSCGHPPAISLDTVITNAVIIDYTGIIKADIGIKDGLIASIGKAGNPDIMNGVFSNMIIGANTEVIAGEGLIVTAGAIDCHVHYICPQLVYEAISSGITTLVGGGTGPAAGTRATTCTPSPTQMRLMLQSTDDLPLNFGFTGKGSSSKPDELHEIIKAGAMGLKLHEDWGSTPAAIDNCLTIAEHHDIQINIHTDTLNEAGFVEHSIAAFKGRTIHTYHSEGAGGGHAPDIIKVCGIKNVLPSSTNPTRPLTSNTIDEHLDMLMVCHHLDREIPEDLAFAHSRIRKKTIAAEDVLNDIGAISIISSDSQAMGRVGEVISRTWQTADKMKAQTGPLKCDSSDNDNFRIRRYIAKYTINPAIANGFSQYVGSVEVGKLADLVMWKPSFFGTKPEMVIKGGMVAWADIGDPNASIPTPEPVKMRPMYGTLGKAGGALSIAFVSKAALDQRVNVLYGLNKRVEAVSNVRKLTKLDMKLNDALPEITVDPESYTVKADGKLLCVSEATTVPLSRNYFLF

Acetyl Cholinestrase (AChE), sequence (O42275 24-633): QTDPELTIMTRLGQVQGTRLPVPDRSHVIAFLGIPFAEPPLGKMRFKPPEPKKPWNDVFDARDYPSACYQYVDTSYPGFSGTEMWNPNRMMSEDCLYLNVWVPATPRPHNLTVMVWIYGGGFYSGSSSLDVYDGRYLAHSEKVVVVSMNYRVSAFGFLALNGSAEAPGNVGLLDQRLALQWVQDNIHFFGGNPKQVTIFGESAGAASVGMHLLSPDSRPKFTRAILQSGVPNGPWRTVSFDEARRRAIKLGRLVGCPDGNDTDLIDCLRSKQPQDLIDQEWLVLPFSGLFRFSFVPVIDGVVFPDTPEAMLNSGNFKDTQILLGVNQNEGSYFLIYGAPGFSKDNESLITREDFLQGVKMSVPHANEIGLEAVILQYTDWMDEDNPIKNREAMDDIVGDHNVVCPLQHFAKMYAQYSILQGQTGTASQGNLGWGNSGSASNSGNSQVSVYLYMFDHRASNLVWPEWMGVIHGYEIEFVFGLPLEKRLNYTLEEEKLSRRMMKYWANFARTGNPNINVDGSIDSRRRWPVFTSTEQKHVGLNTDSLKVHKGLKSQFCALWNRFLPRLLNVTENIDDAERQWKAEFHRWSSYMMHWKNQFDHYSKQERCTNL

| SMILES | IC50 [1] [µM] | % Inhibition (Jack bean Urease) [% Inhibition] |
| --- | --- | --- |
| CC(C)c1ccc(CCCCCCCCCCCCCCCCCO)cc1 [compound 1, sorokiniol] | 9.08 | – |
| NC(N)=S [thiourea] | – | 95 ± 1.50 |

Source: publication PMC4899901, “Sorokiniol: a new enzymes inhibitory metabolite from fungal endophyte Bipolaris sorokiniana LK12” (BMC Microbiology, 2016)
